Source: patent US12502386B2, “Nitrogen-containing heterocyclic compound and use thereof” (SHANGHAI SHIJIANG BIOTECHNOLOGY CO., LTD, priority 2022, dated 2025)

What was measured:
Format in all cases: cell-based, human
[1] = system: Con-NCI-H82 cell; assay: CellTiter-Glo cell viability, Con-NCI-H82 cell (empty-vector control); conditions: Homo sapiens, NCI-H82, NCI-H82 transfected with empty virus vector (control), intracellular ATP, read-out: inhibitory effect on Con-NCI-H82 (IC50)
[2] = system: sh-DNMT1 NCI-H82 cell; assay: CellTiter-Glo cell viability, sh-DNMT1 NCI-H82 cell (DNMT1 knocked down); conditions: Homo sapiens, NCI-H82, NCI-H82 with DNMT1 knocked down by shRNA, intracellular ATP, read-out: inhibitory effect on sh-DNMT1 NCI-H82 (IC50)
[3] = system: ov-NNMT NCI-H82 cell; assay: CellTiter-Glo cell viability, ov-NNMT NCI-H82 cell (NNMT overexpressed); conditions: Homo sapiens, NCI-H82, NCI-H82 overexpressing NNMT protein, intracellular ATP, read-out: inhibitory effect on OV-NNMT NCI-H82 (IC50)

SMILES	IC50 [1] [µM]	IC50 [2] [µM]	IC50 [3] [µM]
CCCCCC1=C2c3cc4c(cc3CCN2C(C2CCCC2)c2c1ccc(OC)c2OC)OCO4 (stereo not drawn) [AB35522]	1.36	5.64	3.68
COc1ccc2c(c1NCCc1ccccc1)C(C)N1CCc3cc4c(cc3C1=C2)OCO4 (stereo not drawn) [AB31895]	1.14	4.68	3.24
CCCCCC1=C2c3cc4c(cc3CCN2C(C)c2c1ccc(OC)c2OC)OCO4 (stereo not drawn) [AB35422]	2.32	4.94	5.48
[2H]C1([2H])Cc2cc3c(cc2C2=Cc4ccc(OC)c(OC)c4CN21)OCO3 [AB36476]	1.24	7.34	4.86
CCCCCC1=C2c3cc4c(cc3CCN2C(C(Cl)(Cl)Cl)c2c1ccc(OC)c2OC)OCO4 (stereo not drawn) [AB35418]	0.53	2.25	1.26
CCCCCCCCC1=C2c3cc4c(cc3CCN2C(C(Cl)(Cl)Cl)c2c1ccc(OC)c2OC)OCO4 (stereo not drawn) [AB35497]	1.25	5.68	3.56
COc1ccc2c(c1N1CCCCCC1)CN1CCc3cc4c(cc3C1=C2)OCO4 [AB36493]	0.29	1.98	1.58
COc1ccc2c(c1OCCCCl)C(C1CCCCC1)N1CCc3cc4c(cc3C1=C2)OCO4 (stereo not drawn) [AB35491]	2.22	6.54	6.86
COc1c(OCCCCl)ccc2c1C(C1CCCC1)N1CCc3cc4c(cc3C1=C2)OCO4 (stereo not drawn) [AB36474]	1.33	6.08	4.12
COc1ccc2c(c1OC)C(C)N1CCc3cc4c(cc3C1=C2)OCCO4 (stereo not drawn) [AB31898]	3.69	12.1	8.64
COc1ccc2c(c1OCCCBr)C(C(Cl)(Cl)Cl)N1CCc3cc4c(cc3C1=C2)OCO4 (stereo not drawn) [AB35466]	1.01	4.48	3.56
COc1ccc2c(c1OCCCCCl)C(C(Cl)(Cl)Cl)N1CCc3cc4c(cc3C1=C2)OCO4 (stereo not drawn) [AB35496]	2.92	8.24	6.32
CCC1=C2c3cc4c(cc3CCN2C(C(Cl)(Cl)Cl)c2c1ccc(OC)c2OC)OCO4 (stereo not drawn) [AB35488]	1.98	9.32	7.56
COc1ccc2c(c1OC)C(C(Cl)(Cl)Cl)N1CCc3cc4c(cc3C1=C2CCCCCCBr)OCO4 (stereo not drawn) [AB35501]	0.87	2.56	2.12
CCCCC1=C2c3cc4c(cc3CCN2C(C(Cl)(Cl)Cl)c2c1ccc(OC)c2OC)OCO4 (stereo not drawn) [AB35502]	2.93	7.02	7.18
COc1ccc2c(c1OC)C(C)N1CCc3cc4c(cc3C1=C2CCCc1ccccc1)OCO4 (stereo not drawn) [AB35411]	1.24	4.34	2.51
COc1ccc2c(c1OC)C(n1cccc1)N1CCc3cc4c(cc3C1=C2)OCO4 (stereo not drawn) [AB36520]	2.56	2.62	2.42
COc1ccc2c(c1OCCCCCCCl)C(C)N1CCc3cc4c(cc3C1=C2)OCO4 (stereo not drawn) [AB31888]	2.26	6.12	4.64
COc1ccc2c(c1OC)C(C1CCCC1)N1CCc3cc4c(cc3C1=C2CCCCCCBr)OCO4 (stereo not drawn) [AB35523]	1.02	2.86	2.99
COc1ccc2c(c1N1CCN(C)CC1)C(C1CCCC1)N1CCc3cc4c(cc3C1=C2)OCO4 (stereo not drawn) [AB35519]	2.19	4.68	5.68
COc1ccc2c(c1OCCN(C)C)C(C(Cl)(Cl)Cl)N1CCc3cc4c(cc3C1=C2)OCO4 (stereo not drawn) [AB35446]	18.4	17.9	16.3
COc1ccc2c(c1OCCF)CN1CCc3cc4c(cc3C1=C2)OCO4 [AB35599]	1.38	6.42	3.43
COc1ccc2c(c1OCCCCNC(=O)OC(C)(C)C)C(C(Cl)(Cl)Cl)N1CCc3cc4c(cc3C1=C2)OCO4 (stereo not drawn) [AB35423]	2.16	4.36	4.96
ClC(Cl)(Cl)C1c2c(ccc3c2OCO3)C=C2c3cc4c(cc3CCN21)OCO4 (stereo not drawn) [AB35421]	5.77	21.2	12.4
COc1ccc2c(c1N1CCC(NC(=O)OC(C)(C)C)CC1)C(C(Cl)(Cl)Cl)N1CCc3cc4c(cc3C1=C2)OCO4 (stereo not drawn) [AB35465]	2.69	8.84	9.32
COc1ccc2c(c1OC)C(C(Cl)(Cl)Cl)N1CCc3cc4c(cc3C1=C2Cc1ccccn1)OCO4 (stereo not drawn) [AB35447]	26.2	24.3	25.7
CCCCCOc1c(OC)ccc2c1C(C(Cl)(Cl)Cl)N1CCc3cc4c(cc3C1=C2)OCO4 (stereo not drawn) [AB35505]	0.52	3.36	2.14
COc1ccc2c(c1OC)CN1CCc3cc4c(cc3C1=C2Cc1ccc(C(C)C)cc1)OCO4 [AB31870]	0.53	2.54	1.32

The next lines start with the values.

IC50 [1] [µM]	IC50 [2] [µM]	IC50 [3] [µM]	SMILES
2.88	6.08	6.32	CCCCC1c2c(c(Br)cc(OC)c2OC)C=C2c3cc4c(cc3CCN21)OCO4 (stereo not drawn) [AB31873]
2.16	6.52	6.96	CCOc1c(OC)ccc2c1C(C(Cl)(Cl)Cl)N1CCc3cc4c(cc3C1=C2)OCO4 (stereo not drawn) [AB35499]
1.02	4.98	3.25	COc1ccc2c(c1OCCCCOc1ccccc1)C(C1CCCC1)N1CCc3cc4c(cc3C1=C2)OCO4 (stereo not drawn) [AB35454]
20.6	20.9	18.1	COc1ccc2c(c1OCCN1CCCCC1)C(C)N1CCc3cc4c(cc3C1=C2)OCO4 (stereo not drawn) [AB35443]
1.26	3.98	4.12	CCOc1c(OC)ccc2c1CN1CCc3cc4c(cc3C1=C2)OCO4 [AB35594]
0.28	2.04	1.02	COc1ccc2c(c1OCCCBr)CN1CCc3cc4c(cc3C1=C2)OCO4 [AB35544]
0.72	3.22	2.12	COc1ccc2c(c1OC/C=C(\C)CCC=C(C)C)C(C1CCCC1)N1CCc3cc4c(cc3C1=C2)OCO4 (stereo not drawn) [AB35438]
0.54	3.01	1.95	CCCCCC1c2c(ccc3c2OCO3)C=C2c3cc4c(cc3CCN21)OCO4 (stereo not drawn) [AB36433]
0.77	3.32	3.56	COc1ccc2c(c1OC)C(C(Cl)(Cl)Cl)N1CCc3cc4c(cc3C1=C2CCCc1ccccc1)OCCO4 (stereo not drawn) [AB35484]
0.23	2.08	1.32	COc1ccc2c(c1N1CCC(C)CC1)C(C(Cl)(Cl)Cl)N1CCc3cc4c(cc3C1=C2)OCO4 (stereo not drawn) [AB35453]
8.23	7.83	8.06	COc1ccc2c(c1OC)C(c1ccncc1)N1CCc3cc4c(cc3C1=C2)OCO4 (stereo not drawn) [AB36488]
4.55	16.8	12.3	COc1ccc2c(c1OCCCF)C(C)N1CCc3cc4c(cc3C1=C2)OCO4 (stereo not drawn) [AB35485]
1.06	4.58	3.33	COc1ccc2c(c1Br)CN1CCc3cc4c(cc3C1=C2)OCO4 [AB36460]
4.23	15.4	10.2	ClC(Cl)(Cl)C1c2c(ccc3c2OCO3)C(CCCc2ccccc2)=C2c3cc4c(cc3CCN21)OCO4 (stereo not drawn) [AB35428]
0.61	3.14	2.32	CCC(CC)COc1c(OC)ccc2c1C(C(Cl)(Cl)Cl)N1CCc3cc4c(cc3C1=C2)OCO4 (stereo not drawn) [AB35521]
0.25	2.56	1.34	COc1ccc2c(c1NCCc1ccccc1)C(C(Cl)(Cl)Cl)N1CCc3cc4c(cc3C1=C2)OCO4 (stereo not drawn) [AB35486]
4.36	3.96	4.08	COc1ccc2c(c1OC)C(=C(Cl)Cl)N1CCc3cc4c(cc3C1=C2)OCO4 [AB36512]
0.92	3.98	3.55	COc1ccc2c(c1OCc1ccccc1-c1ccccc1)C(C(Cl)(Cl)Cl)N1CCc3cc4c(cc3C1=C2)OCO4 (stereo not drawn) [AB35531]
0.96	2.33	2.56	COc1ccc2c(c1NCCc1ccccc1)C(C1CCCC1)N1CCc3cc4c(cc3C1=C2)OCO4 (stereo not drawn) [AB35457]
5.55	16.4	13.4	CCCCN1CCN(c2c(OC)ccc3c2C(C(Cl)(Cl)Cl)N2CCc4cc5c(cc4C2=C3)OCO5)CC1 (stereo not drawn) [AB35445]
1.23	4.02	4.32	COc1ccc2c(c1OCCCF)C(C(Cl)(Cl)Cl)N1CCc3cc4c(cc3C1=C2)OCO4 (stereo not drawn) [AB35478]
0.74	2.98	3.12	CCCCCCC1=C2c3cc4c(cc3CCN2C(C(Cl)(Cl)Cl)c2c1ccc(OC)c2OC)OCO4 (stereo not drawn) [AB35508]
4.97	16.5	12.3	COc1ccc2c(c1OC(=O)CC13CC4CC(CC(C4)C1)C3)C(C1CCCC1)N1CCc3cc4c(cc3C1=C2)OCO4 (stereo not drawn) [AB35459]
1.11	3.12	3.33	COc1ccc2c(c1OCCCCCCNC(=O)OC(C)(C)C)C(C1CCCC1)N1CCc3cc4c(cc3C1=C2)OCO4 (stereo not drawn) [AB35455]
2.12	4.58	4.69	COc1ccc2c(c1N1CCC(Cl)CC1)CN1CCc3cc4c(cc3C1=C2)OCCO4 [AB35550]
0.43	1.96	2.12	CCCCOc1c(OC)ccc2c1C(C(Cl)(Cl)Cl)N1CCc3cc4c(cc3C1=C2)OCO4 (stereo not drawn) [AB35494]
1.15	5.28	4.21	COc1ccc2c(c1OC)C(C(Cl)(Cl)Cl)N1CCc3cc4c(cc3C1=C2CCc1ccccc1)OCO4 (stereo not drawn) [AB35444]
1.08	4.51	3.44	CCCC1c2c(ccc3c2OCO3)C=C2c3cc4c(cc3CCN21)OCO4 (stereo not drawn) [AB36416]
